The text below walks through data of paper PMC9502953 (Molecules, 2022).

Assay [1] is described as follows: DMPD radical scavenging (505 nm). As to the method:
(§1) The DPPH radical scavenging activities were assessed by measuring the absorbance at 517 nm after keeping in the dark for 30 min [81]. […] ABTS solution (7.0 mM) was prepared using K2S2O8 ([…]), and the absorbance of the control was set to 0.700 ± 0.025 at 734 nm on dilution with buffer solution (0.1 M and pH 7.4). […] The control included only ABTS radical solution [82]. […] Briefly, 0.2 mL of FeCl3 (50 mM) and 1 mL of DMPD solution were added to the buffer (pH 5.3, 100 mM). The concentrations of all of the samples were 10–30 μg/mL. The total volume was adjusted to […] using deionized water. An aliquot (1 mL) of DMPD radicals was added, and the absorbance was recorded at 505 nm. The radical scavenging results were expressed as half maximal scavenging concentrations (IC50, μg/mL).

Assay [2] in a line: Cu^2+ reducing ability (CUPRAC, neocuproine, absorbance at 450 nm). The note with it: 30 μg/mL concentration. How it is done:
(§2) The reaction was terminated by adding 1 mL of trichloroacetic acid (TCA, 10%). Following this, 0.5 mL of newly prepared FeCl3 (0.1%) was transferred, and the absorptions were measured at 700 nm. Deionized water was used as the blank control. […] Finally, after 20 min, absorbances were recorded at 450 nm.

Assay [3] can be described thus: ABTS radical scavenging (734 nm). How it is done:
as §1

Assay [4] in a line: Fe^3+ reducing ability (K3Fe(CN)6 reduction, absorbance at 700 nm). The note with it: 30 μg/mL concentration. How it is done: as §2
Assay [5] in a line: DPPH radical scavenging (Blois method, 517 nm). How it is done: as §1
For orientation: The DPPH test is a chemical assay of radical scavenging.

Details of assay [6]: method as in ref 12, 3, 47, 48, 49, 50 (in order of compounds). The note with it: same concentration; 50 (in order of compounds); cited from earlier work.
For assay [7] the following is noted: cited from earlier work; for DPPH^• removal IC50 (literature): 50 (in order of compounds); for IC50 values for comparison (radical scavenging; assay not given, paragraph on DPPH): 53 (in order of compounds).
On the set-up of assay [8]: method as in ref 47, 48, 3, 53, 49, 48, 12, 53, 50 (in order of compounds). Particulars: 50 (in order of compounds); cited from earlier work.
On the set-up of assay [9]: method as in ref 12, 43, 3, 44, 45, 46 (in order of compounds). Particulars: similar quantities; 46 (in order of compounds); cited from earlier work.
The target of assay [10] is T1, human carbonic anhydrase II (hCA II) (Homo sapiens, UniProt P00918).
T1 construct: from tissue; host or cells: human erythrocytes
As to the kind of experiment: Carbonic anhydrase II inhibition (esterase activity, 348 nm). It counts as biochemical. How it is done: The CA II isozyme was purified from human erythrocytes using Sepharose-4B-Tirozyne-sulfanylamide affinity column chromatography. Further, it was precipitated, and the serum was separated and adjusted with solid Tris to pH 8.7. The sample was then loaded to the affinity chromatography column and equilibrated with Tris-Na2SO4/HCl (pH 8.7, 22 mM/25 mM). CA II was eluted with sodium acetate/NaClO4 (0.5 M, pH 5.6, 25 °C). Protein quantity during the purification study was determined using the Bradford method. Bovine serum albumin was used as the standard protein [93]. The purity of CA II was controlled using SDS-PAGE [94]. During purification and inhibition of CA II, esterase activities were performed following the change in absorbance at 348 nm
(§3) The Ki values and other parameters were calculated from Lineweaver-Burk graphs as described priorly. The Ki values were taken out from this graph. All of the analyses were independently conducted in triplicate, and the results are expressed as mean values ± SD.

Assay [11] deals with T2, acetylcholinesterase (AChE) (Electrophorus electricus, UniProt O42275).
T2 construct: purchased Sigma-Aldrich GmbH (Steinheim, Germany)
As to the kind of experiment: biochemical. As to the method: AChI and BChI were used as substrates for enzymatic reactions.
as §3

T2 sequence (O42275 24-633): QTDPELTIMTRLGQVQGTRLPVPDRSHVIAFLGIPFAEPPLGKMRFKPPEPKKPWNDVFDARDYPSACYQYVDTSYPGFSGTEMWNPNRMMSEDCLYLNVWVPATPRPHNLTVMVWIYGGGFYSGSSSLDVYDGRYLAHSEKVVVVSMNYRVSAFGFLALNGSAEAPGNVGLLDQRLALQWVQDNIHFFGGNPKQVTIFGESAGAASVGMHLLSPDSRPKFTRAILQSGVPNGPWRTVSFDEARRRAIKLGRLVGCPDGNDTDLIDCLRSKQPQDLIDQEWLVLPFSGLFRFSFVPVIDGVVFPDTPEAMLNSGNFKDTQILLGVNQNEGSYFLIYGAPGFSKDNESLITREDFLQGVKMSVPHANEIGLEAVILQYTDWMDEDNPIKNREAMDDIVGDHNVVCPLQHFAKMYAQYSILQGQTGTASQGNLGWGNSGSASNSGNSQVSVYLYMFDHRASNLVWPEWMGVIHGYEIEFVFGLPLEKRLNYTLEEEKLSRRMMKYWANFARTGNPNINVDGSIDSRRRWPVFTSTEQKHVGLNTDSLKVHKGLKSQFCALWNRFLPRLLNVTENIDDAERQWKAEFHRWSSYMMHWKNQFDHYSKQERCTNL

Regarding `Cc1c(C)c2c(c(C)c1O)CC[C@@](C)(CCC[C@H](C)CCC[C@H](C)CCCC(C)C)O2` [α-Tocopherol], the “DMPD^•+ Scavenging IC50” value in assay [1] was 7.11 µg/mL. Moreover, the “Cu^2+ Reducing λ (450 nm) absorbance” value in assay [2] turned out to be 0.816. Also, in assay [3], the “ABTS^•+ Scavenging IC50” value came out at 8.73 µg/mL. The “Fe^3+ Reducing λ (700 nm) absorbance” value in [4] is recorded as 0.957. For the same molecule, in assay [5], the “DPPH^• Scavenging IC50” value is 11.31 µg/mL.
In the case of `O=C1c2c(O)cc(O)cc2OC(c2ccc(O)c(O)c2)C1O` (centres unmarked) [taxifolin], in assay [6], the “Cu^2+-reducing absorbance values (natural phenolics)” value (from here on “Cu^2+-reducing absorbance values”) is recorded as 0.750. In addition, in assay [7], the “DPPH^• removal IC50 (literature)” value was 77.00 µg/mL and the “IC50 values for comparison (radical scavenging; assay not given, paragraph on DPPH)” value was 0.83 µg/mL. For the same molecule, the “DMPD^•+ removing IC50 (literature)” value in assay [8] is 173.25 µg/mL.
As for `O=c1oc2cc(O)ccc2c2oc3cc(O)ccc3c12` [coumestrol], the “Cu^2+-reducing absorbance values” value in assay [6] is recorded as 0.739. Further, the “Fe^3+-reducing absorbance values (previous studies)” value (shortened to “Fe^3+-reducing absorbance values”) in assay [9] is recorded as 0.739. For the same molecule, the “IC50 values for comparison (radical scavenging; assay not given, paragraph on DPPH)” value in [7] was 25.95 µg/mL. Also, in assay [8], the “DMPD^•+ removing IC50 (literature)” value was 12.81 µg/mL.
Regarding `COc1ccc(O)c(C(C)(C)C)c1` [BHA, butylated hydroxyanisole], in [1], the “DMPD^•+ Scavenging IC50” value is 11.99 µg/mL. Also, the “Cu^2+ Reducing λ (450 nm) absorbance” value in assay [2] came to 2.216. Besides, in assay [3], the “ABTS^•+ Scavenging IC50” value worked out at 5.07 µg/mL. Besides, the “Fe^3+ Reducing λ (700 nm) absorbance” value in assay [4] worked out at 2.347. The “DPPH^• Scavenging IC50” value in assay [5] was 10.10 µg/mL.
In the case of `Cc1cc(C(C)(C)C)c(O)c(C(C)(C)C)c1` [BHT, butylated hydroxytoluene], the “DMPD^•+ Scavenging IC50” value in [1] was 8.72 µg/mL. Besides, in assay [2], the “Cu^2+ Reducing λ (450 nm) absorbance” value is 2.044. The “ABTS^•+ Scavenging IC50” value in assay [3] is 6.99 µg/mL. Also, the “Fe^3+ Reducing λ (700 nm) absorbance” value in [4] is reported as 0.952. The “DPPH^• Scavenging IC50” value in assay [5] was determined as 25.95 µg/mL.
For the molecule tannic acid, in [9], the “Fe^3+-reducing absorbance values” value is 2.428.
In the case of `O=C(O)/C=C/c1ccc(O)c(O)c1` [caffeic acid], the “Fe^3+-reducing absorbance values” value in assay [9] was 2.769.
Consider `CC(=O)c1c(O)c(C)c(O)c2c1OC1=CC(=O)C(C(C)=O)C(=O)C12C` (centres unmarked) [usnic acid], for which the “Cu^2+-reducing absorbance values” value in assay [6] is on record as 0.277. Besides, in [9], the “Fe^3+-reducing absorbance values” value was 0.278. Besides, in [7], the “DPPH^• removal IC50 (literature)” value is 49.50 µg/mL and the “IC50 values for comparison (radical scavenging; assay not given, paragraph on DPPH)” value is 10.41 µg/mL. In addition, the “DMPD^•+ removing IC50 (literature)” value in [8] is 33.00 µg/mL.
As to `O=C(/C=C/c1ccc(O)c(O)c1)OCCc1ccccc1` [CAPE, caffeic acid phenethyl ester], in [9], the “Fe^3+-reducing absorbance values” value is 2.509. Also, in [7], the “DPPH^• removal IC50 (literature)” value is 3.30 µg/mL and the “IC50 values for comparison (radical scavenging; assay not given, paragraph on DPPH)” value was 9.80 µg/mL. Moreover, the “DMPD^•+ removing IC50 (literature)” value in [8] is 26.70 µg/mL.
In the case of L-Adrenaline, in assay [7], the “DPPH^• removal IC50 (literature)” value was 30.6 µg/mL and the “IC50 values for comparison (radical scavenging; assay not given, paragraph on DPPH)” value is 6.93 µg/mL. The “DMPD^•+ removing IC50 (literature)” value in assay [8] is 15.6 µg/mL.
For `O=c1[nH]c(=O)c2[nH]c(=O)[nH]c2[nH]1` [uric acid], the “Fe^3+-reducing absorbance values” value in assay [9] is 0.432.
Consider `CCCCCc1cc(O)cc(O)c1` [olivetol], for which the “Cu^2+-reducing absorbance values” value in assay [6] was 1.314. In [7], the “DPPH^• removal IC50 (literature)” value is 17.77 µg/mL and the “IC50 values for comparison (radical scavenging; assay not given, paragraph on DPPH)” value is 1.94 µg/mL. Further, in assay [8], the “DMPD^•+ removing IC50 (literature)” value was 19.25 µg/mL.
Turning to `C=CCc1ccc(O)c(OC)c1` [eugenol], in assay [6], the “Cu^2+-reducing absorbance values” value is listed as 0.762. In addition, in assay [7], the “DPPH^• removal IC50 (literature)” value was 16.06 µg/mL and the “IC50 values for comparison (radical scavenging; assay not given, paragraph on DPPH)” value is 7.84 µg/mL. Also, in [8], the “DMPD^•+ removing IC50 (literature)” value is 10.04 µg/mL.
Consider `Cc1c(C)c2c(c(C)c1O)CCC(C)(C(=O)O)O2` (centres unmarked) [Trolox], for which, in assay [1], the “DMPD^•+ Scavenging IC50” value was 4.33 µg/mL. Moreover, the “Cu^2+ Reducing λ (450 nm) absorbance” value in assay [2] stood at 1.548. The “ABTS^•+ Scavenging IC50” value in assay [3] was 6.16 µg/mL. For the same molecule, the “Fe^3+ Reducing λ (700 nm) absorbance” value in assay [4] is 2.119. Moreover, the “DPPH^• Scavenging IC50” value in [5] amounted to 7.059 µg/mL.
One may read the IC50 as the concentration that inhibits the measured activity by half. Lower therefore signals higher potency. Broadly, the Ki is a dissociation constant, usually derived from enzyme kinetics or from competition with a known ligand. `COc1ccc2c(c1O)-c1c(O)c(OC)cc3c1[C@H](C2)[N+](C)(C)CC3` [Magnofluorine]: the half-maximal inhibitory concentration (IC50) in assay [10] stood at 26 nM; in [11] it was 10 nM. Besides, the Ki in assay [10] (Lineweaver-Burk graphs, mean ± SD, read-out: Ki CA II) was 25.4 ± 1.1 nM. Further, in assay [1], the “DMPD^•+ Scavenging IC50” value is 15.26 µg/mL. The “Cu^2+ Reducing λ (450 nm) absorbance” value in [2] amounted to 0.458. Also, in [3], the “ABTS^•+ Scavenging IC50” value is 27.61 µg/mL. In [4], the “Fe^3+ Reducing λ (700 nm) absorbance” value came out at 0.967. The “DPPH^• Scavenging IC50” value in [5] was 10.58 µg/mL.
